Article PMC5218480 (PLoS ONE, 2017)

Test system: MV-4-11 cells
Assay: Gene expression microarray analysis (Affymetrix PrimeView) and GSEA
Format: cell-based, human
Parameters: RFU PODN (11730768_x_at) / Fold change /veh PODN (11730768_x_at) / RFU LINC00158 (11744669_a_at) / Fold change /veh LINC00158 (11744669_a_at) / RFU DUSP10 (11751237_a_at) / Fold change /veh DUSP10 (11751237_a_at) / RFU ID3 (11757404_x_at) / Fold change /veh ID3 (11757404_x_at) / RFU PLEKHG5 (11737974_s_at) / Fold change /veh PLEKHG5 (11737974_s_at) / RFU LRRC4B (11730491_at) / Fold change /veh LRRC4B (11730491_at) / RFU GIMAP4 (11747438_a_at) / Fold change /veh GIMAP4 (11747438_a_at) / RFU KRT8 (11758183_x_at) / Fold change /veh KRT8 (11758183_x_at) / RFU CNN1 (11734310_a_at) / Fold change /veh CNN1 (11734310_a_at) / RFU VPS37D (11726825_at) / Fold change /veh VPS37D (11726825_at) / RFU C10orf10 (11716522_x_at) / Fold change /veh C10orf10 (11716522_x_at) / RFU KIR2DL2 /// KIR2DL4 /// KIR2DL5A /// KIR2DL5B /// KIR2DS1 /// KIR2DS2 /// KIR2DS3 /// KIR2DS4 /// KIR3DL3 /// KIR3DL3 /// KIR3DS1 (11738374_at) / Fold change /veh KIR2DL2 /// KIR2DL4 /// KIR2DL5A /// KIR2DL5B /// KIR2DS1 /// KIR2DS2 /// KIR2DS3 /// KIR2DS4 /// KIR3DL3 /// KIR3DL3 /// KIR3DS1 (11738374_at) / RFU C1QL1 (11718748_at) / Fold change /veh C1QL1 (11718748_at) / RFU TMPRSS4 (11747572_a_at) / Fold change /veh TMPRSS4 (11747572_a_at) / RFU HAMP (11756126_x_at) / Fold change /veh HAMP (11756126_x_at) / RFU RNFT2 (11725882_a_at) / Fold change /veh RNFT2 (11725882_a_at) / RFU NR4A2 (11747474_a_at) / Fold change /veh NR4A2 (11747474_a_at) / RFU ABCC12 (11746883_a_at) / Fold change /veh ABCC12 (11746883_a_at) / RFU TMEM136 (11760407_x_at) / Fold change /veh TMEM136 (11760407_x_at) / RFU CLDN22 /// WWC2 (11732394_at) / Fold change /veh CLDN22 /// WWC2 (11732394_at) / RFU HLA-DPB1 (11760878_x_at) / Fold change /veh HLA-DPB1 (11760878_x_at) / RFU SPINT1 (11716480_a_at) / Fold change /veh SPINT1 (11716480_a_at) / RFU GAP43 (11754022_s_at) / Fold change /veh GAP43 (11754022_s_at) / RFU A4GNT (11735810_at) / Fold change /veh A4GNT (11735810_at) / RFU PRB3 (11715151_x_at) / Fold change /veh PRB3 (11715151_x_at) / RFU TUBB4B (11761932_at) / Fold change /veh TUBB4B (11761932_at) / RFU CAPN14 (11732068_a_at) / Fold change /veh CAPN14 (11732068_a_at) / RFU TMCC2 (11721928_a_at) / Fold change /veh TMCC2 (11721928_a_at) / RFU IRGQ (11745062_a_at) / Fold change /veh IRGQ (11745062_a_at) / RFU FAM174B (11720279_a_at) / Fold change /veh FAM174B (11720279_a_at) / RFU TMPRSS4 (11748680_a_at) / Fold change /veh TMPRSS4 (11748680_a_at) / RFU FAM212B (11763350_a_at) / Fold change /veh FAM212B (11763350_a_at) / RFU PLEKHG5 (11743358_a_at) / Fold change /veh PLEKHG5 (11743358_a_at) / RFU ZSCAN30 (11745921_a_at) / Fold change /veh ZSCAN30 (11745921_a_at) / RFU CMKLR1 (11741424_a_at) / Fold change /veh CMKLR1 (11741424_a_at) / RFU LOC101060620 /// MAPK8IP1 (11723275_at) / Fold change /veh LOC101060620 /// MAPK8IP1 (11723275_at) / RFU SPTSSB (11747773_x_at) / Fold change /veh SPTSSB (11747773_x_at) / RFU PRSS12 (11739890_at) / Fold change /veh PRSS12 (11739890_at) / RFU BIN1 (11741810_x_at) / Fold change /veh BIN1 (11741810_x_at) / RFU WNT11 (11732464_a_at) / Fold change /veh WNT11 (11732464_a_at) / RFU C10orf10 (11716521_a_at) / Fold change /veh C10orf10 (11716521_a_at) / RFU C5orf56 (11738089_at) / Fold change /veh C5orf56 (11738089_at) / RFU CYB561 (11721691_x_at) / Fold change /veh CYB561 (11721691_x_at) / RFU ANKRD19P (11752326_a_at) / Fold change /veh ANKRD19P (11752326_a_at) / RFU OR2T12 /// OR2T33 /// OR2T8 (11738714_s_at) / Fold change /veh OR2T12 /// OR2T33 /// OR2T8 (11738714_s_at) / RFU VCAN (11748164_a_at) / Fold change /veh VCAN (11748164_a_at) / RFU JSRP1 (11732532_at) / Fold change /veh JSRP1 (11732532_at) / RFU KRTAP10-11 (11738290_x_at) / Fold change /veh KRTAP10-11 (11738290_x_at) / RFU MYO3A (11730013_a_at) / Fold change /veh MYO3A (11730013_a_at) / RFU EBF3 (11725865_a_at) / Fold change /veh EBF3 (11725865_a_at) / RFU CAMK2N1 (11719241_x_at) / Fold change /veh CAMK2N1 (11719241_x_at) / RFU C5orf56 (11738088_a_at) / Fold change /veh C5orf56 (11738088_a_at) / RFU OLFML3 (11715873_a_at) / Fold change /veh OLFML3 (11715873_a_at) / RFU LOC100653217 /// NTM (11731650_a_at) / Fold change /veh LOC100653217 /// NTM (11731650_a_at) / RFU MAPK11 (11762145_a_at) / Fold change /veh MAPK11 (11762145_a_at) / RFU FIZ1 (11724087_x_at) / Fold change /veh FIZ1 (11724087_x_at) / RFU OASL (11726364_x_at) / Fold change /veh OASL (11726364_x_at) / RFU SOX15 (11748057_x_at) / Fold change /veh SOX15 (11748057_x_at) / RFU CD79A (11719716_a_at) / Fold change /veh CD79A (11719716_a_at) / RFU HIST1H1D (11736915_at) / Fold change /veh HIST1H1D (11736915_at) / RFU CASKIN2 (11723855_a_at) / Fold change /veh CASKIN2 (11723855_a_at) / RFU LOC730098 (11760151_x_at) / Fold change /veh LOC730098 (11760151_x_at) / RFU OR4N2 (11742367_at) / Fold change /veh OR4N2 (11742367_at) / RFU PRRT2 (11749266_a_at) / Fold change /veh PRRT2 (11749266_a_at) / RFU SNX32 (11753110_a_at) / Fold change /veh SNX32 (11753110_a_at) / RFU CDHR5 (11726645_a_at) / Fold change /veh CDHR5 (11726645_a_at) / RFU RCAN1 (11760418_a_at) / Fold change /veh RCAN1 (11760418_a_at) / RFU FAM167A (11723789_a_at) / Fold change /veh FAM167A (11723789_a_at) / RFU FAM26E (11764081_at) / Fold change /veh FAM26E (11764081_at) / RFU ISYNA1 (11749810_s_at) / Fold change /veh ISYNA1 (11749810_s_at) / RFU ACY1 (11761880_at) / Fold change /veh ACY1 (11761880_at) / RFU 11764098_at / Fold change /veh 11764098_at / RFU SAMD14 (11745864_x_at) / Fold change /veh SAMD14 (11745864_x_at) / RFU NPB (11741838_a_at) / Fold change /veh NPB (11741838_a_at) / RFU TMPRSS6 (11731388_a_at) / Fold change /veh TMPRSS6 (11731388_a_at) / RFU KRTAP10-2 (11738614_at) / Fold change /veh KRTAP10-2 (11738614_at) / RFU ARHGAP8 /// PRR5-ARHGAP8 (11727945_x_at) / Fold change /veh ARHGAP8 /// PRR5-ARHGAP8 (11727945_x_at) / RFU KRTAP5-7 /// NADSYN1 (11734609_at) / Fold change /veh KRTAP5-7 /// NADSYN1 (11734609_at) / RFU RASL12 (11751679_a_at) / Fold change /veh RASL12 (11751679_a_at) / RFU CDKN2B (11736163_a_at) / Fold change /veh CDKN2B (11736163_a_at) / RFU PRF1 (11729649_at) / Fold change /veh PRF1 (11729649_at) / RFU, ZNF638 /// ZNF638-IT1 / Fold change vs veh, ZNF638 /// ZNF638-IT1 / RFU, PANK3 / Fold change vs veh, PANK3 / RFU, SH3YL1 / Fold change vs veh, SH3YL1 / RFU, ZEB2 / Fold change vs veh, ZEB2 / RFU, NRIP1 / Fold change vs veh, NRIP1 / RFU, PTTG1IP / Fold change vs veh, PTTG1IP / RFU, CAPN2 / Fold change vs veh, CAPN2 / RFU, MED14 / Fold change vs veh, MED14 / RFU, SNORA58 / Fold change vs veh, SNORA58 / RFU, C1orf63 / Fold change vs veh, C1orf63 / RFU, LRRFIP1 / Fold change vs veh, LRRFIP1 / RFU, NDUFAF7 / Fold change vs veh, NDUFAF7 / RFU, SLC12A2 / Fold change vs veh, SLC12A2 / RFU, IBTK / Fold change vs veh, IBTK / RFU, ESF1 / Fold change vs veh, ESF1 / Fold change vs veh, TMEM50B / RFU, TAOK1 / Fold change vs veh, TAOK1 / RFU, ACBD3 / Fold change vs veh, ACBD3 / RFU, TMA16 / Fold change vs veh, TMA16 / RFU, RWDD3 / Fold change vs veh, RWDD3 / RFU, BCAT1 / Fold change vs veh, BCAT1 / RFU, EDEM3 / Fold change vs veh, EDEM3 / RFU, TMEM33 / Fold change vs veh, TMEM33 / RFU, WDR75 / Fold change vs veh, WDR75 / RFU, AHCTF1 / Fold change vs veh, AHCTF1 / RFU, TFRC / Fold change vs veh, TFRC / RFU, ZDHHC17 / Fold change vs veh, ZDHHC17 / RFU, NOM1 / Fold change vs veh, NOM1 / RFU, ARL8B / Fold change vs veh, ARL8B / RFU, ZBTB11 / Fold change vs veh, ZBTB11 / RFU, TAMM41 / Fold change vs veh, TAMM41 / RFU, KIAA1704 /// LOC100996395 / Fold change vs veh, KIAA1704 /// LOC100996395 / RFU, ING1 / Fold change vs veh, ING1 / RFU, TRMT61B / Fold change vs veh, TRMT61B / RFU, FUBP3 / Fold change vs veh, FUBP3 / RFU, TP53 / Fold change vs veh, TP53 / RFU, TNKS2 / Fold change vs veh, TNKS2 / RFU, ZFP14 / Fold change vs veh, ZFP14 / RFU, ACTR2 / Fold change vs veh, ACTR2 / RFU, PPP3R1 / Fold change vs veh, PPP3R1 / RFU, PIK3R1 / Fold change vs veh, PIK3R1 / RFU, HNRNPA1 / Fold change vs veh, HNRNPA1 / RFU, RNF170 / Fold change vs veh, RNF170 / RFU, ZNF28 / Fold change vs veh, ZNF28 / RFU, RNGTT / Fold change vs veh, RNGTT / RFU, OGT / Fold change vs veh, OGT / RFU, BRD1 / Fold change vs veh, BRD1 / RFU, MARS / Fold change vs veh, MARS / RFU, ZNF655 / Fold change vs veh, ZNF655 / RFU, FAHD1 / Fold change vs veh, FAHD1 / RFU, BDP1 / Fold change vs veh, BDP1 / RFU, LRRCC1 / Fold change vs veh, LRRCC1 / RFU, ARID1A / Fold change vs veh, ARID1A / RFU, ZNF146 / Fold change vs veh, ZNF146 / RFU, ZNF330 / Fold change vs veh, ZNF330 / RFU, GPN3 / Fold change vs veh, GPN3 / RFU, C9orf123 / Fold change vs veh, C9orf123 / RFU, N4BP2L2 / Fold change vs veh, N4BP2L2 / RFU, ARFIP1 / Fold change vs veh, ARFIP1 / RFU, FAM179B / Fold change vs veh, FAM179B / RFU, BCL10 / Fold change vs veh, BCL10 / RFU, UHRF1BP1L / Fold change vs veh, UHRF1BP1L / RFU, BET1 / Fold change vs veh, BET1 / RFU, CNOT2 / Fold change vs veh, CNOT2 / RFU, ZNF268 / Fold change vs veh, ZNF268 / Fold change vs veh, ZNF507 / RFU, DGCR2 / Fold change vs veh, DGCR2 / RFU, WDSUB1 / Fold change vs veh, WDSUB1 / Fold change vs veh, HSP90B1 /// MIR3652 / RFU, ADSS / Fold change vs veh, ADSS / RFU, GK / Fold change vs veh, GK / RFU, ZNF148 / Fold change vs veh, ZNF148 / RFU, TAF9 / Fold change vs veh, TAF9 / RFU, SLC1A5 / Fold change vs veh, SLC1A5 / RFU, SLMO2 / Fold change vs veh, SLMO2 / RFU, ABCC4 / Fold change vs veh, ABCC4 / RFU, LOC101060439 /// RAP1B / Fold change vs veh, LOC101060439 /// RAP1B / RFU, RFX7 / Fold change vs veh, RFX7 / RFU, GTPBP10 / Fold change vs veh, GTPBP10 / RFU, CNEP1R1 / Fold change vs veh, CNEP1R1 / RFU, BIVM-ERCC5 /// ERCC5 / Fold change vs veh, BIVM-ERCC5 /// ERCC5 / RFU, ILF3 / Fold change vs veh, ILF3 / RFU 11762660_at / Fold change /veh 11762660_at / RFU VCAN (11757783_s_at) / Fold change /veh VCAN (11757783_s_at) / RFU DDX43 (11728927_at) / Fold change /veh DDX43 (11728927_at) / RFU KRT8 (11758188_x_at) / Fold change /veh KRT8 (11758188_x_at) / RFU NKD1 (11759106_at) / Fold change /veh NKD1 (11759106_at) / RFU SRD5A1 (11742802_a_at) / Fold change /veh SRD5A1 (11742802_a_at) / RFU TPSAB1 /// TPSB2 (11721975_s_at) / Fold change /veh TPSAB1 /// TPSB2 (11721975_s_at) / RFU GSTM3 (11746129_a_at) / Fold change /veh GSTM3 (11746129_a_at) / RFU IL23R (11737362_x_at) / Fold change /veh IL23R (11737362_x_at) / RFU TMEM51 (11727254_a_at) / Fold change /veh TMEM51 (11727254_a_at) / RFU PIWIL2 (11732686_x_at) / Fold change /veh PIWIL2 (11732686_x_at) / RFU ORM1 (11744905_x_at) / Fold change /veh ORM1 (11744905_x_at) / RFU CCDC152 (11743942_at) / Fold change /veh CCDC152 (11743942_at) / RFU ECM1 (11717891_a_at) / Fold change /veh ECM1 (11717891_a_at) / RFU IL23R (11748794_a_at) / Fold change /veh IL23R (11748794_a_at) / RFU TNFAIP8L3 (11732012_x_at) / Fold change /veh TNFAIP8L3 (11732012_x_at) / RFU MBOAT4 (11741988_at) / Fold change /veh MBOAT4 (11741988_at) / RFU 11764193_at / Fold change /veh 11764193_at / RFU TMEM53 (11763286_at) / Fold change /veh TMEM53 (11763286_at) / RFU MAGEB2 (11727129_at) / Fold change /veh MAGEB2 (11727129_at) / RFU TMEM200A (11744735_a_at) / Fold change /veh TMEM200A (11744735_a_at) / RFU CCDC152 (11751479_a_at) / Fold change /veh CCDC152 (11751479_a_at) / RFU FAM211A (11726209_a_at) / Fold change /veh FAM211A (11726209_a_at) / RFU RGS16 (11746705_a_at) / Fold change /veh RGS16 (11746705_a_at) / RFU VCAN (11755009_s_at) / Fold change /veh VCAN (11755009_s_at) / RFU RHOB (11743442_s_at) / Fold change /veh RHOB (11743442_s_at) / RFU RGS16 (11720943_a_at) / Fold change /veh RGS16 (11720943_a_at) / RFU RGS16 (11720944_at) / Fold change /veh RGS16 (11720944_at) / RFU, VPS4B / Fold change vs veh, VPS4B / RFU, CREB1 / Fold change vs veh, CREB1 / RFU, DNAJC13 / Fold change vs veh, DNAJC13 / RFU, GNAQ / Fold change vs veh, GNAQ / RFU, CDK5R1 / Fold change vs veh, CDK5R1 / RFU, ZRANB3 / Fold change vs veh, ZRANB3 / RFU, CUL4A / Fold change vs veh, CUL4A / RFU, CCNY / Fold change vs veh, CCNY / RFU, UFL1 / Fold change vs veh, UFL1 / RFU, COG3 / Fold change vs veh, COG3 / RFU, DIAPH2 / Fold change vs veh, DIAPH2 / RFU, SKA2 / Fold change vs veh, SKA2 / RFU, AFF3 / Fold change vs veh, AFF3 / RFU, LMF1 / Fold change vs veh, LMF1 / RFU, IPO11 / Fold change vs veh, IPO11 / RFU, DFFB / Fold change vs veh, DFFB / RFU, FOXP1 / Fold change vs veh, FOXP1 / RFU, CARD8 / Fold change vs veh, CARD8 / RFU, STRN3 / Fold change vs veh, STRN3 / RFU, ADK / Fold change vs veh, ADK / RFU, RASSF2 / Fold change vs veh, RASSF2 / RFU, WIPF1 / Fold change vs veh, WIPF1 / RFU, LARP1B / Fold change vs veh, LARP1B / RFU, RASA1 / Fold change vs veh, RASA1 / RFU, RB1 / Fold change vs veh, RB1 / RFU, PPFIA1 / Fold change vs veh, PPFIA1 / RFU, MAT2A / Fold change vs veh, MAT2A / RFU, CCT5 / Fold change vs veh, CCT5 / RFU, WDR92 / Fold change vs veh, WDR92 / RFU, CUX1 / Fold change vs veh, CUX1 / RFU, TTC7A / Fold change vs veh, TTC7A / RFU, TMEM135 / Fold change vs veh, TMEM135 / RFU, DEPTOR / Fold change vs veh, DEPTOR / RFU, CPM / Fold change vs veh, CPM / RFU, DNAJB6 / Fold change vs veh, DNAJB6 / RFU, CACNA2D3 / Fold change vs veh, CACNA2D3 / RFU, DTX4 / Fold change vs veh, DTX4 / RFU, TFCP2 / Fold change vs veh, TFCP2 / RFU, GMCL1 /// GMCL1P1 / Fold change vs veh, GMCL1 /// GMCL1P1 / RFU, AEBP2 / Fold change vs veh, AEBP2 / RFU, SNHG1 /// SNORD22 /// SNORD25 /// SNORD26 /// SNORD27 /// SNORD28 /// SNORD29 /// SNORD31 / Fold change vs veh, SNHG1 /// SNORD22 /// SNORD25 /// SNORD26 /// SNORD27 /// SNORD28 /// SNORD29 /// SNORD31 / Fold change (Aza/veh), C12orf56 (ProbeSet 11735607_a_at) / Fold change (ACY-1035/veh), C12orf56 (ProbeSet 11735607_a_at) / Fold change (Aza/veh), FGFR1OP (ProbeSet 11751329_s_at) / Fold change (ACY-1035/veh), FGFR1OP (ProbeSet 11751329_s_at) / Fold change (Aza/veh), VPS36 (ProbeSet 11739960_a_at) / Fold change (ACY-1035/veh), VPS36 (ProbeSet 11739960_a_at) / RFU SYPL1 (11715823_x_at) / Fold change /veh SYPL1 (11715823_x_at) / RFU IGFBP7 (11715501_s_at) / Fold change /veh IGFBP7 (11715501_s_at) / RFU REEP3 (11722064_at) / Fold change /veh REEP3 (11722064_at) / RFU IGLL1 (11728026_x_at) / Fold change /veh IGLL1 (11728026_x_at): dose or concentration left out as unconfirmed
Details: ProbeSet 11747889_x_at; LIST B

Nc1ccc(-c2cccs2)cc1NC(=O)c1ccc2c(c1)cc(C1CC1)n2CCN1CCOCC1 [ACY-1035]
RFU, SH3YL1: 65.52 RFU
